For 15 molecules, inhibition and IC50 results are on record in patent US8129427B2, “2-phenylethylamino derivatives as calcium and/or sodium channel modulators” (Newron Pharmaceuticals S.p.A., priority 2005, dated 2012).

pIC50: −log10 of the molar value. Counter-ions that a name gives are not always drawn. Like-named read-outs stand apart in the source and are kept apart here.

One experiment deals with T1, MAO-B (Rattus norvegicus, UniProt P19643).
T1 construct: from tissue; host or cells: rat brain crude mitochondrial fraction
T1 sequence (P19643 1-520): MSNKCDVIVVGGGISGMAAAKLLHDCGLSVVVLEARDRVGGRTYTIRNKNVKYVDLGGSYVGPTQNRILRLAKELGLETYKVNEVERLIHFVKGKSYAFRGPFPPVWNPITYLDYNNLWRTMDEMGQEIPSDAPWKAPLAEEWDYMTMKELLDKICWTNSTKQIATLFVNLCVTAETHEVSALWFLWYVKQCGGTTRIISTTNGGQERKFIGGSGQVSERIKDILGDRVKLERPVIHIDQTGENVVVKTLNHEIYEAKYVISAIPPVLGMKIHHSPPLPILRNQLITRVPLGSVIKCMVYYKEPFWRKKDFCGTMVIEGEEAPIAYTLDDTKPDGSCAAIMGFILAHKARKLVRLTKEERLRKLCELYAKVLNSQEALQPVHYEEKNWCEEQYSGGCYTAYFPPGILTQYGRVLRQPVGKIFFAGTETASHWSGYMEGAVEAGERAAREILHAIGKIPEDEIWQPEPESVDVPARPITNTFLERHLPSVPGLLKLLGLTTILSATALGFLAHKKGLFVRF
The experiment is described as follows: In vitro MAO-B enzyme activity radioenzymatic assay. The class given is biochemical. The following applies: 100 μM compound, rat brain crude mitochondrial fraction, 14C-PEA substrate. The method, then:
Male Wistar rats (Harlan, Italy—175-200 g) were sacrificed under light anaesthesia and brains were rapidly removed and homogenized in 8 volumes of ice-cold 0.32 M sucrose buffer containing 0.1 M EDTA, pH 7.4. The crude homogenate was centrifuged at 2220 rpm for 10 minutes and the supernatant recovered. The pellet was homogenized and centrifuged again. The two supernatants were pooled and centrifuged at 9250 rpm for 10 minutes at +4° C. The pellet was resuspended in fresh buffer and centrifuged at 11250 rpm for 10 minutes at +4° C. The resulting pellet was stored at −80° C.
The enzyme activities were assessed with a radioenzymatic assay using the substrates ^14C-serotonin (5-HT) and ^14C-phenylethylamine (PEA) for MAO-A and MAO-B, respectively.
The mitochondrial pellet (500 μg protein) was resuspended in 0.1 M phosphate buffer (pH 7.4). 500 μl of the suspension were added to a 50 μl solution of the test compound or buffer, and incubated for 30 min at 37° C. (preincubation) then the substrate (50 μl) was added. The incubation was carried out for 30 minutes at 37° C. (^14C-5-HT, 5 μM) or for 10 minutes at 37° C. (^14C-PEA, 0.5 μM).
The reaction was stopped by adding 0.2 ml of 37% HCl or perchloric acid. After centrifugation, the deaminated metabolites were extracted with 3 ml of diethyl ether (5-HT) or toluene (PEA) and the radioactive organic phase was measured by liquid scintillation spectrometry at 90% efficiency. The amount of neutral and/or acidic metabolites formed as a result of MAO activity was obtained by measuring the radioactivity of the eluate.
The activity of MAO in the sample, corresponding to a percentage of radioactivity compared with the control activity in the absence of the inhibitor, was expressed as nmoles of substrate transformed/mg protein/min.

A further experiment concerns L-type calcium channels. The class given is cell-based, mouse. The conditions noted are these: AtT20/D16v-F2 cells, ω-conotoxin 1 μM, 100 mM KCl depolarization.
A further experiment addresses N-type calcium channels (Homo sapiens, UniProt Q00975). The experiment is described as follows: N-type calcium channel influx assay (fluorescence). The class given is cell-based.
In a further experiment the test system is TTXs sodium channels. Description: TTXs-sodium channel influx assay (membrane potential fluorescence). The following applies: ND7/23 cells, veratridine 100 μM. In kind it is cell-based, rat. On the procedure:
ND7/23 rat dorsal root ganglion-derived cell line endogenously expresses a mixed population of TTXs sodium channels (such as Nav1.3, Nav1.2, Nav1.1, Nav1.6). These cells lack of TTXr sodium channels as shown by the absence of their respective transcripts. ND7/23 cells were grown in DMEM supplemented with 10% FBS and 1 mM sodium piruvate.
The cells were seeded at 50,000 cells/well on 96 poly-L-lysine-coated plates and further incubated for 18-24 h before use.
The Membrane Potential Kit Assay (Molecular Devices), based on a negatively charged fluorescent dye able to monitor changes in membrane potential caused by the sodium influx due to the channel opening, was used for the assay.
Cells were incubated with the dye loading for 30 minutes at 25° C. Then, 100 nM of the toxin Anemonia sulcata (used as enhancer of the channel opener response) alone or in the presence of TTX (as reference standard) or test compound were added for further 15 minutes.
The fluorescence (excitation: 530 nm, emission: 565 nm wavelength) was measured before and after (40-45 s) the automated injection of the sodium channel opener veratridine (100 μM) using a Victor plate reader (Perkin Elmer).
The inhibition curves were calculated from 5 concentrations, each in triplicate, and the IC50 determined using a linear regression analysis.

The mark [1] stands for this setting: differentiated IMR32 cells, nifedipine 1 μM, 100 mM KCl depolarization, read-out: IC50.

N-type calcium channels, sequence (Q00975 whole entry): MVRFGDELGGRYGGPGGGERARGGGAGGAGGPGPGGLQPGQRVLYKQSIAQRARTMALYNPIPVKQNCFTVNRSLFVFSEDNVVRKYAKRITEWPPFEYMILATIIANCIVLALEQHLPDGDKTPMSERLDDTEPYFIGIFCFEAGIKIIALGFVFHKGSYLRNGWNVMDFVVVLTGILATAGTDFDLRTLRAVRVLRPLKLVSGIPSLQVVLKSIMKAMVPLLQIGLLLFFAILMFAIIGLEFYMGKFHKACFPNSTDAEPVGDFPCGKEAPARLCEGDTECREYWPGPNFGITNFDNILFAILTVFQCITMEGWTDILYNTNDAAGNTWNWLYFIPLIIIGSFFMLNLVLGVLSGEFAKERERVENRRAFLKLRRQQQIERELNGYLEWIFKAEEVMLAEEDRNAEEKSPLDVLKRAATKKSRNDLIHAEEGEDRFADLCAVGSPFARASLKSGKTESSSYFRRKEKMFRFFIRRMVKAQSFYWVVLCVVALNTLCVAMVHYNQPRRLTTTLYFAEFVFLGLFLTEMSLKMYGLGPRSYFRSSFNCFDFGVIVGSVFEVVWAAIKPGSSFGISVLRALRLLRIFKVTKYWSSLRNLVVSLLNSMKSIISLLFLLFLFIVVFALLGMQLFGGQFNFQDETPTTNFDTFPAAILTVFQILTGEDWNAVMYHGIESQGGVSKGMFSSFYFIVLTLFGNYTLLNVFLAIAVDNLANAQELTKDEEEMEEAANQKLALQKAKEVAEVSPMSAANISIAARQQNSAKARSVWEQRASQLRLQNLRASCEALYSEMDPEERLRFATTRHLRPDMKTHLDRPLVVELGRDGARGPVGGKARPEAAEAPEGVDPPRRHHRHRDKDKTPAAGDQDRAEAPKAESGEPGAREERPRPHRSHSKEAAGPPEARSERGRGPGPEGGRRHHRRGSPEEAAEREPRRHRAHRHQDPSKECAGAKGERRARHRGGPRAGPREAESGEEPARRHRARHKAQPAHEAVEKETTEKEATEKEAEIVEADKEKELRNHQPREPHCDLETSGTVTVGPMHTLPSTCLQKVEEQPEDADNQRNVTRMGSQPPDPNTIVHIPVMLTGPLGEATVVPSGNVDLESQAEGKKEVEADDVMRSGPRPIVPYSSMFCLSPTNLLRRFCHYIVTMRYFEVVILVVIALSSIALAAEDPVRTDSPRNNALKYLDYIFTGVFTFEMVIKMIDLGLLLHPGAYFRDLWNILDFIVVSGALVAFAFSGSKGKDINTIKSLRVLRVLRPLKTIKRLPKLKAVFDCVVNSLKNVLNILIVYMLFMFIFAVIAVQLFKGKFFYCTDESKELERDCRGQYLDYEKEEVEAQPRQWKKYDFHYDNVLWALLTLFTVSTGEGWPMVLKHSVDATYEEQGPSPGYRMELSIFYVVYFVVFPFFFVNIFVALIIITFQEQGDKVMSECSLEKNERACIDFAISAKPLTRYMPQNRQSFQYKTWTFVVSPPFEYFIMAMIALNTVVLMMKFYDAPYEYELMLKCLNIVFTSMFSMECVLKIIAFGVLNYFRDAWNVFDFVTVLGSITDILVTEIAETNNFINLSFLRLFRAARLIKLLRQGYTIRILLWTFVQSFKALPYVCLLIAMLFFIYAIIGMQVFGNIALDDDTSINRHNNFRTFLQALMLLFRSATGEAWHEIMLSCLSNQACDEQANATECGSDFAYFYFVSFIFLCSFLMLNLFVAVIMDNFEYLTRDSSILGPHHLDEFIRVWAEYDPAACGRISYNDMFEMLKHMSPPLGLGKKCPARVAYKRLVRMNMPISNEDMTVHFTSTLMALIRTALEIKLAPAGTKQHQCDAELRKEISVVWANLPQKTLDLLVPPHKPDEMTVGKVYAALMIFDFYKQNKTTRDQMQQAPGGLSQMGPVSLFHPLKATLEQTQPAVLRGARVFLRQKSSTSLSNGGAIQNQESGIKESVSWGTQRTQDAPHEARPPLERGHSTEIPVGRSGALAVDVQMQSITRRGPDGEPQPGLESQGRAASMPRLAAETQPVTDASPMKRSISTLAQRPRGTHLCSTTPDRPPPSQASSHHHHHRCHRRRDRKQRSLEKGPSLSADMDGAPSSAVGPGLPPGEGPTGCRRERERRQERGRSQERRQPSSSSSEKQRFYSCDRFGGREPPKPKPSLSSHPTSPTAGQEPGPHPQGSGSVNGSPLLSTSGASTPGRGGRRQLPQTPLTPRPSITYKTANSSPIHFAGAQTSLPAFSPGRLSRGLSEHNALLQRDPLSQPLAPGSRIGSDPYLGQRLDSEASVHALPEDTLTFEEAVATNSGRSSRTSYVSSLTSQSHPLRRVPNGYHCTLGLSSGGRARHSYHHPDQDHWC
N-type calcium channels, sequence (Q02641 whole entry partner): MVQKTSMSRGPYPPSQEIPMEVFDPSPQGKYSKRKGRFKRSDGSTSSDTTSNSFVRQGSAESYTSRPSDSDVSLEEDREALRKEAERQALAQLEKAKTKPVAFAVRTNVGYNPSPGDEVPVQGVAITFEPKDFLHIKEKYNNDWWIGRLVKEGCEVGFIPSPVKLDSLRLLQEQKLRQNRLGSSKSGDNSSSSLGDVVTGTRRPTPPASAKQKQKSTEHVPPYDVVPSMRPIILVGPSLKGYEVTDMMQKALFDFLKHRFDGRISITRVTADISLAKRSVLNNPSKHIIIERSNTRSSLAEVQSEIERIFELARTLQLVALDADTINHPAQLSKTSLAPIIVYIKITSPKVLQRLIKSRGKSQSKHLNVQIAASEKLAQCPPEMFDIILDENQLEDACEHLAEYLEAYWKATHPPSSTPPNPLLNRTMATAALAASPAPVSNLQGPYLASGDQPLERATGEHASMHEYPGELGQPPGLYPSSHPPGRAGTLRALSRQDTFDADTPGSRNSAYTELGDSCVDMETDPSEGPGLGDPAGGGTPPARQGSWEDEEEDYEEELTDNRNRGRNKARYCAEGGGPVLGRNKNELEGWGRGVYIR
N-type calcium channels, sequence (P54289 25-956 partner limits assumed): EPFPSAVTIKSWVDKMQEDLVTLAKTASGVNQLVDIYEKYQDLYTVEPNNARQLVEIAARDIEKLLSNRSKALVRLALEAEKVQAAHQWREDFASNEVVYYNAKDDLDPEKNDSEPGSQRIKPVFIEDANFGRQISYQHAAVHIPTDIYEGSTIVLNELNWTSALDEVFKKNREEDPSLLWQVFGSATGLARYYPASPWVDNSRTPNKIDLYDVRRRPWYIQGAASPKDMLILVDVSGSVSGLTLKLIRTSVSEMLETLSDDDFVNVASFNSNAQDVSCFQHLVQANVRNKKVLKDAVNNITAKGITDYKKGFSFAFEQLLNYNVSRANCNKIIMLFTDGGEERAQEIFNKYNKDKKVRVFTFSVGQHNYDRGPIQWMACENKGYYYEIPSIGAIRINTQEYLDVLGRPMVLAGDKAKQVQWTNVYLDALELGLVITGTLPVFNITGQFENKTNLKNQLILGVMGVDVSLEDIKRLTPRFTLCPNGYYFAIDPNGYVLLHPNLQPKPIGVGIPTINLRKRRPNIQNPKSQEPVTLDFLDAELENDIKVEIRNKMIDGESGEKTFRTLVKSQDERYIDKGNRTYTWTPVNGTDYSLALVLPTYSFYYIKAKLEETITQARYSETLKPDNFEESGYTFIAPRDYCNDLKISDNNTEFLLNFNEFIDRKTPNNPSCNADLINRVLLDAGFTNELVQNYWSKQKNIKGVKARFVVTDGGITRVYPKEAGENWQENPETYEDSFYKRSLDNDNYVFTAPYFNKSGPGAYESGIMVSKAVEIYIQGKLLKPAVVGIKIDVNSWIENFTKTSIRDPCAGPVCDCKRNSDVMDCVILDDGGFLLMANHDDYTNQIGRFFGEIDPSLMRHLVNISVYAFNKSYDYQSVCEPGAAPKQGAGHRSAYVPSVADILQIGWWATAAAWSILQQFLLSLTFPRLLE
N-type calcium channels, sequence (P54289 957-1103 partner limits assumed): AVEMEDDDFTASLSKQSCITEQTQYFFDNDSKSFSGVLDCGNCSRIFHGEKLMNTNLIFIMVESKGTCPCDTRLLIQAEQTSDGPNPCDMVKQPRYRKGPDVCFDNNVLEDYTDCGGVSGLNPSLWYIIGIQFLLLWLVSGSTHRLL

In turn, `CNC(=O)CN(CCc1ccc(OCc2cccc(F)c2)c(OC)c1)CC(C)C` [Example 2, 2-[[2-[4-(3-Fluoro-benzyloxy)-3-methoxy-phenyl]-ethyl]-isobutylamino]-N-methyl-acetamide hydrochloride] showed an inhibition at 100 µM against MAO-B of 53%. Besides, the pIC50 with L-type calcium channels is 5.51; at N-type calcium channels (setting [1]), 5.32.
With `CNC(=O)CN(CCc1ccc(OCc2cccc(F)c2)c(OC)c1)Cc1ccoc1` [Example 10, 2-[[2-[4-(3-Fluoro-benzyloxy)-3-methoxy-phenyl]-ethyl]-(furan-3-ylmethyl)amino]-N-methyl-acetamide hydrochloride], in the experiment with L-type calcium channels, the pIC50 was 5.77.
`CNC(=O)CN(CCc1ccc(OCc2cccc(F)c2)c(OC)c1)Cc1ccc(OC)nc1` [Example 14, 2-[[2-[4-(3-Fluoro-benzyloxy)-3-methoxy-phenyl]-ethyl]-(6-methoxy-pyridin-3-ylmethyl)amino]-N-methyl-acetamide] gave a pIC50 in the experiment on TTXs sodium channels of 5.54.
The molecule `COc1cc(CCN(CC(=O)N(C)C)Cc2ccccc2)ccc1OCc1cccc(F)c1` [Example 20, 2-[[2-[4-(3-Fluoro-benzyloxy)-3-methoxy-phenyl]-ethyl]-benzylamino]-N,N-dimethyl-acetamide hydrochloride] showed an inhibition at 100 µM against MAO-B of 3%. Also, the pIC50 in the experiment on L-type calcium channels is 5.34; on N-type calcium channels, 5.96.
With `CNC(=O)[C@H](CC(C)C)NCCc1ccc(OCc2cccc(F)c2)c(OC)c1` [Example 31, (S)-2-[2-[4-(3-Fluoro-benzyloxy)-3-methoxy-phenyl]-ethylamino]-N-methyl-4-methyl-valeramide], the pIC50 with L-type calcium channels is 6.00.
In turn, `COc1cc(CCNC(C(=O)N(C)C)c2ccccc2)ccc1OCc1cccc(F)c1` (stereo not drawn) [Example 32, 2-[2-[4-(3-Fluoro-benzyloxy)-3-methoxy-phenyl]-ethylamino]-2-phenyl-N,N-dimethyl-acetamide hydrochloride] displayed an inhibition at 100 µM against MAO-B of 0%.
For `COc1cc(CCNC(C(=O)N2CCOCC2)c2ccccc2)ccc1OCc1cccc(F)c1` (stereo not drawn) [Example 33, 2-[2-[4-(3-Fluoro-benzyloxy)-3-methoxy-phenyl]-ethylamino]-1-(morpholin-4-yl)-2-phenyl-ethanone hydrochloride], the inhibition at 100 µM at MAO-B was 0%. For the same molecule, the negative logarithm of the IC50 (pIC50) is 5.15 in the experiment with L-type calcium channels, 5.22 at N-type calcium channels (setting [1]) and 5.68 in the experiment with TTXs sodium channels.
Turning to `CCNC(=O)CN(CCc1ccc(OCc2cccc(F)c2)c(OC)c1)Cc1ccccc1` [Example 37, 2-[[2-[4-(3-Fluoro-benzyloxy)-3-methoxy-phenyl]-ethyl]-benzylamino]-N-ethyl-acetamide hydrochloride], on MAO-B, testing at 100 µM gave an inhibition of 4%. In the experiment with TTXs sodium channels, the pIC50 is 5.92.
Regarding `COc1cc(CCN(CC(=O)N2CCCC2)Cc2ccccc2)ccc1OCc1cccc(F)c1` [Example 40, 2-[[2-[4-(3-Fluoro-benzyloxy)-3-methoxy-phenyl]-ethyl]-benzylamino]-1-(pyrrolidin-1-yl)-ethanone hydrochloride], 100 µM produced 11% inhibition against MAO-B. Further, the pIC50 is 5.80 with L-type calcium channels and 5.66 on N-type calcium channels (setting [1]).
The matching figures for `COc1cc(CCN(CC(=O)NCC(C)(C)N)Cc2ccccc2)ccc1OCc1cccc(F)c1` [Example 42, 2-[[2-[4-(3-Fluoro-benzyloxy)-3-methoxy-phenyl]-ethyl]-benzylamino]-N-(2-amino-2-methyl-propyl)-acetamide hydrochloride]: 32%, 5.62 and 5.59.
The matching figures for `COc1cc(CCN(CC(=O)NCCN(C)C)Cc2ccccc2)ccc1OCc1cccc(F)c1` [Example 43, 2-[[2-[4-(3-Fluoro-benzyloxy)-3-methoxy-phenyl]-ethyl]-benzylamino]-N-(2-dimethylamino-ethyl)-acetamide hydrochloride]: 33%, 5.92 and 5.72.
Turning to `COc1cc(CCN(CC(=O)NCCC2CCCN2C)Cc2ccccc2)ccc1OCc1cccc(F)c1` (stereo not drawn) [Example 44, 2-[[2-[4-(3-Fluoro-benzyloxy)-3-methoxy-phenyl]-ethyl]-benzylamino]-N-[2-(1-methyl-pyrrolidin-2-yl)-ethyl]-acetamide hydrochloride], testing at 100 µM against MAO-B gave an inhibition of 39%.
With `CCNC(=O)CN(CCc1ccc(OCc2cccc(F)c2)c(OC)c1)CC1CC1` [Example 47, 2-[[2-[4-(3-Fluoro-benzyloxy)-3-methoxy-phenyl]-ethyl]-(cyclopropylmethyl)amino]-N-ethyl-acetamide hydrochloride], the pIC50 with L-type calcium channels is 5.74.
For `CN(C)CCNC(=O)CN(CCc1cccc(OCc2cccc(F)c2)c1)Cc1ccco1` [Example 71, 2-[[2-[3-(3-Fluoro-benzyloxy)-phenyl]-ethyl]-(furan-2-ylmethyl)amino]-N-(2-dimethylamino-ethyl)-acetamide dihydrochloride], on MAO-B, 100 µM produced 34% inhibition. Moreover, the pIC50 with L-type calcium channels is 5.47; on N-type calcium channels (setting [1]), 5.72.
The matching figures for `CC(C)(N)CNC(=O)CN(CCc1cccc(OCc2cccc(F)c2)c1)Cc1ccco1` [Example 72, 2-[[2-[3-(3-Fluoro-benzyloxy)-phenyl]-ethyl]-(furan-2-ylmethy ° amino]-N-(2-amino-2-methyl-propyl)-acetamidedihydrochloride]: 31%, 5.54 and 5.59.
